Assay results from US20140286903A1, “Substituted Purine Nucleosides, Phosphoramidate and Phosphordiamidate Derivatives for Treatment if Viral Infections” (INHIBITEX, INC., priority 2011, published 2014).

Columns and labels:
[1] = test system: HCV replicon (Genotype 1b); assay: Luciferase genotype 1b replicon potency assay; type: cell-based, hepatitis C virus; conditions: Hepatitis C virus, Huh-7, Huh7 luciferase-reporter genotype 1b subgenomic replicon cells; Renilla luciferase reporter activity; 50% decrease vs untreated cells
Protocol: (§1) Further to the above Examples, representative compounds, prepared according to the examples were tested for potency in an HCV replicon assay (Genotype 1b) for activity against the virus (EC50) and toxicity to the cells (CC50).
(§2) Huh7 Replicon Cell Lines and Cell Culture Conditions: A luciferase-reporter genotype 1b subgenomic replicon cell line, and a genotype 1a full-length replicon cell line were obtained from Apath, LLC, Brooklyn, N.Y.: All cell lines were passaged twice a week by splitting 4 or 6 fold. Cells were maintained in DMEM-high glucose medium (HyClone, Logan, Utah) supplemented with 9% FBS (HyClone), 2 mM glutamine (Invitrogen, Carlsbad, Calif.), 100 U/mL PenStrep (Invitrogen). Media also contained 0.25 mg/mL of the antibiotic G-418 to maintain stable expression of the replicon (Invitrogen). Incubation was performed at 37° C. in 5% CO2 atmosphere. Replicon cell lines were used until they accumulated 15-to-18 passages, after which cells were restarted from the frozen stock. Seeding cell counts were routinely determined using an automatic Cedex HiRes cell counter (Flownomics Analytical Instruments, Madison, Wis.) or manually using INCYTO C-Chip™ Disposable Hemacytometers (Fisher Scientific, Pittsburg, Pa.).
Luciferase Genotype 1b Replicon Potency Assay. Replicon cells were seeded into white 96-well plates (Nunc/VWR) at a density of 2×10^4 cells/well in medium without G-418. A Stacker Multidrop Liquid Dispenser (MTX Lab Systems, Vienna, Va.) was employed to ensure uniform and fast cell seeding into multiple plates. 18-24 h after cell plating, inhibitors were added and cells were incubated for additional 24, 48, or 72 h (as indicated). Compounds were tested in triplicates and quadruplicates at 3× or 4× serial dilutions over a range of 0.0001-to-10 μM concentrations. HCV replication was monitored by Renilla luciferase reporter activity assay using Renilla luciferase reporter (Promega, Madison, Wis.) and a Veritas Luminometer (Turner Biosystems, Sunnyvale, Calif.). 50% and 90% inhibitory concentration (IC50 and IC90) values were calculated as the concentration of compound that results correspondingly in 50% and 90% decreases in the reporter expression as compared to untreated cells. The values were determined by non-linear regression (four-parameter sigmoidal curve fitting) analysis.

[2] = Cytotoxicity assay (CellTiter-Glo); type: cell-based; conditions: human, 72 h incubation, concentration resulting in 50% luminescent signal
Protocol: as §1, §2
Cytotoxicity Assay. Cells were seeded into 96-well plates at a density of 2×10^4 cells per well. 24 h after cell plating, 11 serial 2× compound dilutions, starting with 100 µM, were applied to the testing plates (3 repeats per compound dilution). Each testing plate was run with a “no-compound” control. Incubation with compounds was continued at 37° C. in a CO2 incubator for 72 h. To determine cell viability, the CellTiter-Glo® assay (Promega, Madison, Wis.) was performed according to the manufacturer's protocol. The compound concentration resulting in 50% luminescent signal was reported as the CC50 concentration.

SMILES	IC50 [1]	CC50 at 72 h [2]	CC50 at 72 h ([2]; Huh7 HCV replicon cells (genotype 1b))
CCOc1nc(N)nc2c1ncn2[C@@H]1O[C@H](COP(=O)(N[C@@H](C)C(=O)OC2CCCCC2)Oc2cccc3ccccc23)[C@@H](F)[C@@]1(C)O (stereo partly drawn) [Example 22, (2S)-Cyclohexyl 2-((((2R,3R,4S,5R)-5-(2-amino-6-ethoxy-9H-purin-9-yl)-3-fluoro-4-hydroxy-4-methyltetrahydrofuran-2-yl)methoxy)(naphthalen-1-yloxy)phosphorylamino)propanoate]	0.73 µM	16 µM	
C[C@H](NP(=O)(OC[C@H]1O[C@@H](n2cnc3c(N4CCC4)nc(N)nc32)[C@](C)(O)[C@@H]1F)Oc1cccc2ccccc12)C(=O)OCC(C)(C)C (stereo partly drawn) [Example 23, (2S)-Neopentyl 2-((((2R,3R,4S,5R)-5-(2-amino-6-(azetidin-1-yl)-9H-purin-9-yl)-3-fluoro-4-hydroxy-4-methyltetrahydrofuran-2-yl)methoxy)(naphthalen-1-yloxy)phosphorylamino)propanoate]	0.9 µM	49 µM	
C[C@H](NP(=O)(OC[C@H]1O[C@@H](n2cnc3c(N4CCC4)nc(N)nc32)[C@](C)(O)[C@@H]1F)Oc1cccc2ccccc12)C(=O)OC1CCCC1 (stereo partly drawn) [Example 24, (2S)-Cyclopentyl 2-((((2R,3R,4S,5R)-5-(2-amino-6-(azetidin-1-yl)-9H-purin-9-yl)-3-fluoro-4-hydroxy-4-methyltetrahydrofuran-2-yl)methoxy)(naphthalen-1-yloxy)phosphorylamino)propanoate]	0.9 µM	50 µM	
C[C@H](NP(=O)(OC[C@H]1O[C@@H](n2cnc3c(N4CCC4)nc(N)nc32)[C@](C)(O)[C@@H]1F)Oc1cccc2ccccc12)C(=O)OC1CCCCC1 (stereo partly drawn) [Example 25, (2S)-Cyclohexyl 2-((((2R,3R,4S,5R)-5-(2-amino-6-(azetidin-1-yl)-9H-purin-9-yl)-3-fluoro-4-hydroxy-4-methyltetrahydrofuran-2-yl)methoxy)(naphthalen-1-yloxy)phosphorylamino)propanoate]	0.95 µM	33 µM	
COc1nc(N)nc2c1ncn2[C@@H]1O[C@H](COP(=O)(N[C@H](C(=O)OCc2ccccc2)C(C)C)Oc2cccc3ccccc23)[C@@H](F)[C@@]1(C)O (stereo partly drawn) [Example 26, (2S)-Benzyl 2-((((2R,3R,4S,5R)-5-(2-amino-6-methoxy-9H-purin-9-yl)-3-fluoro-4-hydroxy-4-methyltetrahydrofuran-2-yl)methoxy)(naphthalen-1-yloxy)phosphorylamino)-3-methylbutanoate]	4 µM	14 µM	
COc1nc(N)nc2c1ncn2[C@@H]1O[C@H](COP(=O)(N[C@@H](C)C(=O)OCC(C)(C)C)N[C@@H](C)C(=O)OCC(C)(C)C)[C@@H](F)[C@@]1(C)O [Example 27, (2S,2′S)-Neopentyl 2,2′-((((2R,3R,4S,5R)-5-(2-amino-6-methoxy-9H-purin-9-yl)-3-fluoro-4-hydroxy-4-methyltetrahydrofuran-2-yl)methoxy)phosphoryl)bis(azanediyl)dipropanoate]	2.1 µM		> 100 µM
COc1nc(N)nc2c1ncn2[C@@H]1O[C@H](COP(=O)(N[C@@H](C)C(=O)OCc2ccccc2)Oc2cccc3ccccc23)[C@H](F)[C@@]1(C)O (stereo partly drawn) [Example 28, (2S)-Benzyl 2-((((2R,3S,4S,5R)-5-(2-amino-6-methoxy-9H-purin-9-yl)-3-fluoro-4-hydroxy-4-methyltetrahydrofuran-2-yl)methoxy)(naphthalen-1-yloxy)phosphorylamino)propanoate]	> 40 µM	92 µM	
COc1nc(N)nc2c1ncn2[C@@H]1O[C@H](COP(=O)(N[C@@H](C)C(=O)OCC(C)(C)C)Oc2cccc3ccccc23)[C@H](F)[C@@]1(C)O (stereo partly drawn) [Example 29, (2S)-Neopentyl 2-((((2R,3S,4S,5R)-5-(2-amino-6-methoxy-9H-purin-9-yl)-3-fluoro-4-hydroxy-4-methyltetrahydrofuran-2-yl)methoxy)(naphthalen-1-yloxy)phosphorylamino)propanoate]	26 µM	40 µM	
COc1nc(N)nc2c1ncn2[C@@H]1O[C@H](COP(=O)(N[C@H](C(=O)OCc2ccccc2)C(C)C)Oc2cccc3ccccc23)[C@H](F)[C@@]1(C)O (stereo partly drawn) [Example 30, (2S)-Benzyl 2-((((2R,3S,4S,5R)-5-(2-amino-6-methoxy-9H-purin-9-yl)-3-fluoro-4-hydroxy-4-methyltetrahydrofuran-2-yl)methoxy)(naphthalen-1-yloxy)phosphorylamino)-3-methylbutanoate]	11 µM	19 µM	
C[C@H](NP(=O)(OC[C@H]1O[C@@H](n2cnc3c(N)ncnc32)[C@](C)(O)[C@@H]1F)Oc1cccc2ccccc12)C(=O)OCC(C)(C)C (stereo partly drawn) [Example 31, (2S)-Neopentyl 2-((((2R,3R,4S,5R)-5-(6-amino-9H-purin-9-yl)-3-fluoro-4-hydroxy-4-methyltetrahydrofuran-2-yl)methoxy)(naphthalen-1-yloxy)phosphorylamino)propanoate]	11 µM	31 µM	
C[C@H](NP(=O)(OC[C@H]1O[C@@H](n2ccc(N)nc2=O)[C@](C)(O)[C@@H]1F)Oc1cccc2ccccc12)C(=O)OCC(C)(C)C (stereo partly drawn) [Example 32, (2S)-Neopentyl 2-((((2R,3R,4S,5R)-5-(4-amino-2-oxopyrimidin-1(2H)-yl)-3-fluoro-4-hydroxy-4-methyltetrahydrofuran-2-yl)methoxy)(naphthalen-1-yloxy)phosphorylamino)propanoate]	> 40 µM	> 100 µM	
C[C@H](NP(=O)(OC[C@H]1O[C@@H](n2ccc(=O)[nH]c2=O)[C@](C)(O)[C@@H]1F)Oc1cccc2ccccc12)C(=O)OCC(C)(C)C (stereo partly drawn) [Example 33, (2 S)-Neopentyl 2-((((2R,3R,4S,5R)-5-(2,4-dioxo-3,4-dihydropyrimidin-1(2H)-yl)-3-fluoro-4-hydroxy-4-methyltetrahydrofuran-2-yl)methoxy)(naphthalen-1-yloxy)phosphorylamino)propanoate]	> 40 µM	75 µM	
